What was measured:
Rat Paw Edema = experiment: Rat paw edema assay (carrageenan); format: in vivo, Male Sprague-Dawley rats; conditions: dose of prodrug, po, required to reduce edema formation by 50% as compared to the vehicle control
Experimental: Male Sprague-Dawley rats (150-200 g) are fasted overnight and are given, po, either vehicle (1% methocel or 5% Tween 80) or a test compound. One hr later, a line is drawn using a permanent marker at the level above the ankle in one hind paw to define the area of the paw to be monitored. The paw volume (V0) is measured using a plethysmometer (Ugo-Basile, Italy) based on the principle of water displacement. The animals are then injected subplantarly with 50 µl of 1% carrageenan solution in saline (FMC Corp, Maine) into the paw using an insulin syringe with a 25-gauge needle (i.e. 500 µg carrageenan per paw). Three hr later, the paw volume (V3) is measured and the increases in paw volume (V3 - VO) are calculated. The animals are sacrificed by CO2 asphyxiation and the absence or presence of stomach lesions scored. Data is compared with the vehicle-control values and percent inhibition calculated. All treatment groups are coded to eliminate observer bias.
Compounds of the present invention are prodrugs of inhibitors of COX-2 and are thereby useful in the treatment of COX-2 mediated diseases as enumerated above. The extent of conversion of these compounds to the active COX-2 inhibitors may be seen in the representative results shown in Table III along with their antiinflammatory activity. The plasma levels indicated are the maximum rat plasma concentrations of the active COX-2 inhibitor observed when the rat was treated with a 20 mg/kg oral dose of the indicated prodrug. The ED50 values in the rat paw edema assay represent the dose of prodrug required to reduce edema formation by 50% as compared to the vehicle control.

[1] = Rat plasma levels, per os pharmacokinetics in rats; format: in vivo, Male Sprague Dawley rats; conditions: maximum rat plasma concentration of the active COX-2 inhibitor (corresponding carbonyl compound) after 20 mg/kg oral dose of the indicated prodrug
Source text: The animals are housed, fed and cared for according to the Guidelines of the Canadian Council on Animal Care.
Male Sprague Dawley rats (325-375 g) are fasted overnight prior to each PO blood level study.
The rats are placed in the restrainer one at a time and the box is firmly secured. The zero blood sample is obtained by nicking a small (1 mm or less) piece off the tip of the tail. The tail is then stroked with a firm but gentle motion from the top to the bottom to milk out the blood. Approximately 1 mL of blood is collected into a heparinized vacutainer tube.
Compounds are prepared as required, in a standard dosing volume of 10mL/kg, and administered orally by passing a 16 gauge, 3" gavaging needle into the stomach.
Subsequent bleeds are taken in the same manner as the zero bleed except that there is no need to nick the tail again. The tail is cleaned with a piece of gauze and milked/stroked as described above into the appropriately labelled tubes.
Immediately after sampling, blood is centrifuged, separated, put into clearly marked vials and stored in a freezer until analysed.
Typical time points for determination of rat blood levels after PO dosing are: 0, 15min, 30min, 1h, 2h, 4h, 6h
After the 4hr time point bleed, food is provided to the rats ad libitum. Water is provided at all times during the study.
The following vehicles may be used in PO rat blood level determinations:
Compounds for PO blood levels can be in suspension form. For better dissolution, the solution can be placed in a sonicator for approximately 5 minutes.
For analysis, aliquots are diluted with an equal volume of acetonitrile and centrifuged to remove protein precipitate. The supernatant is injected directly onto a C-18 HPLC column with UV detection. Quantitation is done relative to a clean blood sample spiked with a known quantity of drug. Bioavailability (F) is assessed by comparing area under the curve (AUC) i.v. versus p.o. F =(AUCpo)/(AUCiv)x(DOSEiv)/(DOSEpo)x 100% [formula] […]

| SMILES | Rat Paw Edema (ED50, mg/kg) (Rat Paw Edema) | Plasma Levels (µM)* [1] |
| --- | --- | --- |
| CC(C)(O)/C(=C(\CO)c1cccc(F)c1)c1ccc(S(C)(=O)=O)cc1 [Example 1, 2-(3-Fluorophenyl)-4-methyl-3-(4-(methylsulfonyl)-phenyl)-2-(Z)-penten-1,4-diol] | 10 mg/kg | 3.5 µM |
| COC(C)(C)/C(=C(\C(=O)N(C)C)c1cccc(F)c1)c1ccc(S(C)(=O)=O)cc1 [Example 4, N,N-Dimethyl-2-(3-fluorophenyl)-4-methoxy-4-methyl-3-(4-(methylsulfonyl)phenyl)-2-(Z)-pentenamide] | 1.6 mg/kg | 10 µM |
| COC(=O)/C(=C(/c1ccc(S(C)(=O)=O)cc1)C(C)(C)OC)c1cccc(F)c1 [Example 6, Methyl 2-(3-fluorophenyl)-4-methoxy-4-methyl-3-(4-(methylsulfonyl)phenyl)-2-(Z)-pentenoate] | 2.1 mg/kg | 6 µM |

From patent EP0882016B1, “ALKYLATED STYRENES AS PRODRUGS TO COX-2 INHIBITORS” (Merck Frosst Canada & Co., priority 1996, dated 1997)
